The values below come from US20030191187A1, “Injectable pharmaceutical composition containing a non-steroidal anti-inflammatory drug and method for preparing the same” (priority 2002, published 2003).

For series [1] the following is noted: cited from earlier work.
Series [2] in a line: behaviour of ketorolac tromethamine solutions outside pH 6.0-8.5. Type of series: physicochemical. The text has this: In the present invention, a stable and injectable pharmaceutical composition which contains an acetic acid class of NSAID is described. The pH value of the injectable pharmaceutical composition is maintained at 6.0-8.5, preferably 6.9-7.9. When the pH values of the ketorolac tromethamine solutions are lower than 6, the NSAID precipitates from the solutions.
(4). Measure the pH of the solution in (3). If the pH is below 6.0, add an appropriate amount of the alkaline agent as described in (A) of the above “pH-adjusting agent” to the solution. If the pH is above 8.5, add an appropriate amount of the acidic agent as described in (B) of the above “pH-adjusting agent” to the solution. Cloudiness is observed when the pH of the solution is below 6. The solution will become clear after the pH adjustment to between 6.0-8.5.

For series [3], the system named is plasma protein. The following applies: once in the circulation; cited from earlier work.
The conditions of series [4]: cited from earlier work. This is another data set of the same source.
The conditions of series [5]: cited from earlier work. This is another data set of the same source.
For series [6] the following is noted: cited from earlier work. The source holds these as a separate data set.
For series [7] the following is noted: white to off-white crystalline substance; cited from earlier work.

Where two headings read alike, the source gives them in different places.

For the molecule `NC(CO)(CO)CO.O=C(c1ccccc1)c1ccc2n1CCC2C(=O)O` (stereo not shown) [ketorolac tromethamine], in series [1], the water solubility result is “enhanced”. The results for the behaviour of solution entry in series [2] (pH higher than 8.5) and in series [2] (pH lower than 6) were “color of the solutions changes” and “precipitates”, respectively. The plasma protein bound in series [3] was 99%. Further, the terminal elimination half-life in series [4] (geriatric patients) was 4.7 to 8.6 h; in series [4] (young adults) it was 3.8 to 6.3 h. Moreover, the “onset of the anti-inflammatory, analgesic, and antipyretic effects” value in series [5] (after the intramuscular administration) is 30 to 60 min. The “time to maximum effect” value in series [5] (after the intravenous or intramuscular administrations) was 1 to 2 h. Further, the “duration of therapeutic effects” value in series [5] (in vivo) was 4 to 6 h. In addition, in series [6], the pKa is recorded as 3.5. Besides, in series [7], the “behaviour under prolonged exposure to light” value is on record as “discolors”.

As for `O=C(c1ccccc1)c1ccc2n1CCC2C(=O)O` (racemic) [ketorolac, (±)-5-benzoyl-2,3-dihydro-1H-pyrrolizine-1-carboxylic acid], the water solubility result in series [1] is on record as “low”. Besides, the “time at which serum concentration reaches a peak” value in series [4] (route not given) is on record as “about 2.9±1.8 minutes”.

By pKa is commonly meant the pH at which an ionisable group is half protonated.
